Experimental data reported in paper PMC2857669 (Biochemistry, 2009).
≈ marks a conversion by molar mass, not a printed value. Where two headings read alike, the source gives them in different places.

How the values were obtained:
HO [1] = conditions: cited from earlier work
hHO-1 = target: T1, hHO-1 (Homo sapiens, UniProt P09601); experiment: biochemical
T1 sequence (P09601 1-265 limits assumed): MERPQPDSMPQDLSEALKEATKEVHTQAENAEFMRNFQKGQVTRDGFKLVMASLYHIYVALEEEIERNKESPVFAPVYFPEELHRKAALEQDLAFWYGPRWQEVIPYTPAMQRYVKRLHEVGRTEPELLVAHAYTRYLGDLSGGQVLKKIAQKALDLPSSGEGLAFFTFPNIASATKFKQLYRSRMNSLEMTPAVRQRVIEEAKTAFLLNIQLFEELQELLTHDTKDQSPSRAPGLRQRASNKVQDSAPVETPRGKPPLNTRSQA

ferrous heme-hHO-1 [2] = target: T2, ferrous heme-hHO-1 (Homo sapiens, UniProt P09601); conditions: cited from earlier work
T2 sequence (P09601 1-265 limits assumed): T1 sequence (P09601 1-265 limits assumed)

ferric verdoheme-hHO-1 = target: T3, ferric verdoheme-hHO-1 (Homo sapiens, UniProt P09601); experiment: biochemical; type: binding
T3 sequence (P09601 1-265 limits assumed): T1 sequence (P09601 1-265 limits assumed)

ferrous heme-hHO-1 [3] = target: T2, ferrous heme-hHO-1; experiment: biochemical; type: binding
hHO-2 = target: T4, hHO-2 (Homo sapiens, UniProt P30519); experiment: biochemical
T4 sequence (P30519 2-295 limits assumed): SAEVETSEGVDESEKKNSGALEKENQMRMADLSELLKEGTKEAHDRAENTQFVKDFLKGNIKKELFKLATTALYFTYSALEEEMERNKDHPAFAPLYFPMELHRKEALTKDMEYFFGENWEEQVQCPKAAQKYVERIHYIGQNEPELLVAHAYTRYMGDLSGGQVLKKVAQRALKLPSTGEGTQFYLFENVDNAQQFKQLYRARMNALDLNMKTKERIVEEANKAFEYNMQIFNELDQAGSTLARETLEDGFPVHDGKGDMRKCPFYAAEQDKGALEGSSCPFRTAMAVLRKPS

CaHmx1 = CaHmx1 (Candida albicans, UniProt Q5AB97); type: binding; conditions: read-out: estimate of the KD; ferric CaHmx1; no full saturation up to 7 mM
[4] = Solubility in aqueous solutions; type: physicochemical
heme-hHO-1 [5] = target: T5, heme-hHO-1 (Homo sapiens, UniProt P09601); experiment: biochemical
T5 sequence (P09601 1-265 limits assumed): T1 sequence (P09601 1-265 limits assumed)

heme-hHO-1 [6] = target: T5, heme-hHO-1; type: binding; conditions: ferric heme-hHO-1
verdoheme-HO-1 complex = conditions: in the presence of reductant; cited from earlier work
HO [7] = conditions: cited from earlier work; remark: listed apart in the source

Compound: iron protoporphyrin IX [heme]
- Kd (HO [1]): 0.8 ± 0.2 µM
- Km (hHO-1; read-out: Km for heme, global fit to uncompetitive inhibition): 0.005 ± 0.001 mM

Compound: [C-]#[O+] [CO, carbon monoxide]
- Kd (ferrous heme-hHO-1 [2]): 0.01 µM
- association rate constant (ferrous heme-hHO-1 [2]): 900000 M⁻¹ s⁻¹
- dissociation rate (ferrous heme-hHO-1 [2]): 0.009 s⁻¹

Compound: [C-]#[N+]C(C)C [isopropyl isocyanide]
- Kd (ferric verdoheme-hHO-1; ferric verdoheme-hHO-1 generated with one equivalent H2O2): 440 ± 75 µM
- association rate constant (kon) (ferrous heme-hHO-1 [3]; ferrous heme-hHO-1, 20 °C, anaerobic): 1.3e+06 M⁻¹ s⁻¹
- IC50 (hHO-1): 0.72 ± 0.08 µM
- IC50 (hHO-2): 1.17 ± 0.06 µM
- Kd (CaHmx1): 3800 µM

Compound: [C-]#[N+]CCCC [n-butyl isocyanide]
- solubility [4]: 6 mM (≈ 499 µg/mL)
- Kd (ferric verdoheme-hHO-1): 17 ± 3 µM
- fold higher affinity than ferric heme-hHO-1 (ferric verdoheme-hHO-1; ferric verdoheme-hHO-1 versus ferric heme-hHO-1): 2 fold
- Kd (ferrous heme-hHO-1 [3]): 0.12 µM
- koff (ferrous heme-hHO-1 [3]; read-out: dissociation rate (koff)): 0.52 s⁻¹
- IC50 (heme-hHO-1 [5]): ~45 µM
- IC50 (hHO-1): 0.25 ± 0.01 µM
- IC50 (hHO-2): 0.34 ± 0.02 µM
- fold higher affinity than isopropyl isocyanide (heme-hHO-1 [6]): 9 fold

Compound: O=O [O2]
- estimated rate constant of reaction with O2 (verdoheme-HO-1 complex): 250 M⁻¹ s⁻¹
- Kd (ferrous heme-hHO-1 [2]): 0.04 µM
- association rate constant (ferrous heme-hHO-1 [2]): 6.9e+06 M⁻¹ s⁻¹
- dissociation rate (ferrous heme-hHO-1 [2]): 0.25 s⁻¹

Compound: C=Cc1c2[n-]c(c1C)/C=c1\[n-]/c(c(C)c1C=C)=C\c1[n-]c(c(CCC(=O)O)c1C)C=c1[n-]/c(c(C)c1CCC(=O)O)=C\2.[Sn+4] [Sn-heme]
- Ki (HO [7]): 0.011 µM
